Converted amounts (≈) assume the structure as drawn. Like-named read-outs stand apart in the source and are kept apart here.
Tests used:
influenza A virus (H1N1) = test: microbe, parasite or virus in culture; assay type: cell-based; settings: for IC50 / IC90: Influenza A virus; for IC50: read-out: IC50, influenza A (H1N1) antiviral activity; for IC90: read-out: IC90, influenza A (H1N1) antiviral activity
[1] = system: Hep G2 liver cancer cell line
[2] = system: Hep 3B liver cancer cell line
[3] = system: MDA-MB-231 breast cancer cell line
[4] = system: MCF 7 breast cancer cell line
[5] = system: Ca9-22 oral cancer cell line
[6] = system: A 549 lung cancer cell line
[7] = MTT cytotoxicity assay, A 549; settings: human, A 549 lung cancer cells
[8] = MTT cytotoxicity assay, Hep G2; settings: human, Hep G2 liver cancer cells
[9] = MTT cytotoxicity assay, Hep 3B; settings: human, Hep 3B liver cancer cells, IC50 cytotoxicity Hep 3B
[10] = MTT cytotoxicity assay, Ca9-22; settings: human, Ca9-22 oral cancer cells
in vitro [11] = settings: human, IC50 cytotoxicity Hep 3B
in vitro [12] = settings: human, IC50 cytotoxicity MCF 7
[13] = system: MCF 7 breast cancer cell line; test: MTT cytotoxicity assay, MCF 7; settings: MTT, 3 days
[14] = system: A 549 lung cancer cell line; test: MTT cytotoxicity assay, A 549; settings: MTT, 3 days
[15] = system: Hep G2 liver cancer cell line; test: MTT cytotoxicity assay, Hep G2; settings: MTT, 3 days
[16] = system: Hep 3B liver cancer cell line; test: MTT cytotoxicity assay, Hep 3B; settings: 3 days
[17] = system: Ca9-22 oral cancer cell line; test: MTT cytotoxicity assay, Ca9-22; settings: MTT, 3 days
[18] = system: MDA-MB-231 breast cancer cell line; test: MTT cytotoxicity assay, MDA-MB-231; settings: MTT, 3 days
[19] = MTT cytotoxicity assay, MCF 7; settings: human, MCF 7 breast cancer cells, IC50 cytotoxicity MCF 7, MTT
[20] = MTT cytotoxicity assay, MDA-MB-231; settings: human, MDA-MB-231 breast cancer cells
in vitro [21] = settings: human
in vitro [22] = settings: human; remark: listed apart in the source
in vitro [23] = settings: human; remark: listed apart in the source
in vitro [24] = settings: human; remark: listed apart in the source
[25] = MDCK cells, XTT, 3 days, concentration achieving 50% cytoprotection
[26] = H1N1, 72 h, MDCK cells, XTT, 3 days, concentration achieving 50% cytoprotection
[27] = H1N1, 72 h, MDCK cells, XTT, 3 days

Molecule: CC(=O)OC(CC=C(C)C)/C(C)=C/[C@@H](O)C/C(C)=C/COc1ccc2ccc(=O)oc2c1 (stereo partly drawn) [Compound 6, 8′-acetoxy-5′S-hydroxyumbelliprenin]
- IC90, influenza A (H1N1) antiviral activity (influenza A virus (H1N1); MDCK cells, XTT, 3 days): 1.56 ± 0.11 µg/mL (≈ 3.54 µM)
- IC50, influenza A (H1N1) antiviral activity (influenza A virus (H1N1); [25]): 0.81 ± 0.06 µg/mL (≈ 1.84 µM)
- IC50 cytotoxicity Hep G2 [1]: 15.59 µg/mL (≈ 35.4 µM)
- IC50 cytotoxicity Hep 3B [2]: 9.82 µg/mL (≈ 22.3 µM)
- IC50 cytotoxicity MDA-MB-231 [3]: >20 µg/mL
- IC50 cytotoxicity MCF 7 [4]: >20 µg/mL
- IC50 cytotoxicity Ca9-22 [5]: 14.23 µg/mL (≈ 32.3 µM)
- IC50 cytotoxicity A 549 [6]: >20 µg/mL

Molecule: COc1cccc2c1C(=O)c1c(O)c3c(c(O)c1C2=O)C[C@@](O)(C(=O)CO)C[C@@H]3O[C@H]1C[C@H](N)[C@H](O)[C@H](C)O1 [Doxorubicin, reference compound]
- IC50 at 3 days [7]: 0.35 µg/mL (≈ 0.644 µM)
- IC50 at 3 days [8]: 0.16 µg/mL (≈ 0.294 µM)
- IC50 at 3 days [9]: 0.41 µg/mL (≈ 0.754 µM)
- IC50 at 3 days [10]: 0.14 µg/mL (≈ 0.258 µM)

Molecule: C/C(=C\COc1ccc2ccc(=O)oc2c1)CC/C=C(\C)CCC(O)C(C)(C)O (stereo not drawn) [Compound 5, 10′R-karatavicinol]
- IC90, influenza A (H1N1) antiviral activity (influenza A virus (H1N1); MDCK cells, XTT, 3 days): 2.05 ± 0.14 µg/mL (≈ 5.12 µM)
- IC50, influenza A (H1N1) antiviral activity (influenza A virus (H1N1); [25]): 0.99 ± 0.07 µg/mL (≈ 2.47 µM)
- IC50 cytotoxicity Hep G2 [1]: >20 µg/mL
- IC50 cytotoxicity Hep 3B [2]: >20 µg/mL
- IC50 cytotoxicity MDA-MB-231 [3]: >20 µg/mL
- IC50 cytotoxicity MCF 7 [4]: 14.27 µg/mL (≈ 35.6 µM)
- IC50 cytotoxicity Ca9-22 [5]: >20 µg/mL
- IC50 cytotoxicity A 549 [6]: 10.97 µg/mL (≈ 27.4 µM)

Molecule: CC1=CC(=O)[C@@H]2C(C)(C)C(=O)CC[C@@]2(C)[C@@H]1COc1ccc2ccc(=O)oc2c1 [Compound 13, epi-conferdione]
- IC90, influenza A (H1N1) antiviral activity (influenza A virus (H1N1); MDCK cells, XTT, 3 days): 0.37 ± 0.03 µg/mL (≈ 0.938 µM)
- IC50, influenza A (H1N1) antiviral activity (influenza A virus (H1N1); [25]): 0.32 ± 0.02 µg/mL (≈ 0.811 µM)

Molecule: C=C1CC[C@]2(C)C(C)(C)[C@@H](OC(C)=O)CC[C@]2(C)[C@H]1COc1ccc2ccc(=O)oc2c1 (single isomer, unassigned) [Polyanthinin, polyanthinin]
- IC50 at 3 days (in vitro [11]): 5.9 µg/mL (≈ 13.5 µM)
- IC50 at 3 days (in vitro [12]): 9.94 µg/mL (≈ 22.7 µM)

Molecule: foetisulfide C
- IC50 cytotoxicity MCF 7 [13]: >20 µg/mL
- IC50 cytotoxicity A 549 [14]: 9.14 µg/mL
- IC50 cytotoxicity Hep G2 [15]: >20 µg/mL
- IC50 cytotoxicity Hep 3B [16]: 19.21 µg/mL
- IC50 cytotoxicity Ca9-22 [17]: 16.48 µg/mL
- IC50 cytotoxicity MDA-MB-231 [18]: >20 µg/mL

Molecule: CC(C)=C1CC[C@H](C)[C@](C)(COc2ccc3ccc(=O)oc3c2)[C@H]1CCC(=O)O [Compound 8, galbanic acid]
- IC50 (influenza A virus (H1N1); [26]): 0.45 ± 0.04 µg/mL (≈ 1.13 µM)
- IC90 (influenza A virus (H1N1); [27]): 0.88 ± 0.07 µg/mL (≈ 2.21 µM)

Molecule: CC1=CC(=O)[C@@H]2C(C)(C)[C@H](O)CC[C@@]2(C)[C@@H]1COc1ccc2ccc(=O)oc2c1 [Compound 12, ligupersin A]
- IC90, influenza A (H1N1) antiviral activity (influenza A virus (H1N1); MDCK cells, XTT, 3 days): 1.75 ± 0.12 µg/mL (≈ 4.41 µM)
- IC50, influenza A (H1N1) antiviral activity (influenza A virus (H1N1); [25]): 0.86 ± 0.08 µg/mL (≈ 2.17 µM)

Molecule: COc1cc(C=O)ccc1O (single isomer, unassigned) [Vanillin, vanillin]
- IC50 at 3 days [19]: 15.7 µg/mL (≈ 103 µM)
- IC50 at 3 days [7]: 16.4 µg/mL (≈ 108 µM)
- IC50 at 3 days [8]: > 20 µg/mL
- IC50 at 3 days [9]: > 20 µg/mL
- IC50 at 3 days [10]: > 20 µg/mL
- IC50 at 3 days [20]: > 20 µg/mL

Molecule: NC12CC3CC(CC(C3)C1)C2 [Amantadine, reference compound]
- IC50 (influenza A virus (H1N1); H1N1, MDCK, 72 h): 0.92 ± 0.04 µg/mL (≈ 6.08 µM)
- IC90 (influenza A virus (H1N1); H1N1, MDCK, 72 h): 1.73 ± 0.11 µg/mL (≈ 11.4 µM)

Molecule: CC(=O)O[C@H](CC/C(C)=C/CC/C(C)=C/COc1ccc2ccc(=O)oc2c1)C(C)(C)O [Compound 2, 10′R-Acetoxy-11′-hydroxyumbelliprenin]
- IC50 (influenza A virus (H1N1); [26]): 0.94 ± 0.07 µg/mL (≈ 2.12 µM)
- IC90 (influenza A virus (H1N1); [27]): 1.98 ± 0.12 µg/mL (≈ 4.47 µM)
- IC50 at 3 days (in vitro [21]): > 20 µg/mL
- IC50 at 3 days (in vitro [11]): 19.8 µg/mL (≈ 44.7 µM)
- IC50 at 3 days (in vitro [22]): > 20 µg/mL
- IC50 at 3 days (in vitro [12]): > 20 µg/mL
- IC50 at 3 days (in vitro [23]): > 20 µg/mL
- IC50 at 3 days (in vitro [24]): > 20 µg/mL

Molecule: CC1=CC[C@@H]2C(C)(C)[C@@H](O)CC[C@@]2(C)[C@@H]1COc1ccc2ccc(=O)oc2c1 [Compound 11, conferol]
- IC50 (influenza A virus (H1N1); [26]): 0.47 ± 0.05 µg/mL (≈ 1.23 µM)
- IC90 (influenza A virus (H1N1); [27]): 0.83 ± 0.09 µg/mL (≈ 2.17 µM)
- IC50 cytotoxicity Hep 3B ([2]; human, 3 days): 2.63 µg/mL (≈ 6.88 µM)
- IC50 cytotoxicity MCF 7 ([4]; human, 3 days): 3.38 µg/mL (≈ 8.84 µM)
- IC50 at 3 days (in vitro [11]): 2.6 µg/mL (≈ 6.8 µM)
- IC50 at 3 days (in vitro [12]): 3.4 µg/mL (≈ 8.89 µM)

Molecule: C[C@@H]1C[C@@H](O)[C@]2(C)[C@@H](C)C(=O)CC[C@H]2[C@]1(C)COc1ccc2ccc(=O)oc2c1 (single isomer, unassigned) [Kamolonol, kamolonol]
- IC50 at 3 days (in vitro [21]): > 20 µg/mL
- IC50 at 3 days (in vitro [11]): 17.9 µg/mL (≈ 45 µM)
- IC50 at 3 days (in vitro [22]): > 20 µg/mL
- IC50 at 3 days (in vitro [12]): > 20 µg/mL
- IC50 at 3 days (in vitro [23]): > 20 µg/mL
- IC50 at 3 days (in vitro [24]): > 20 µg/mL

Molecule: C/C(=C\COc1ccc2ccc(=O)oc2c1)CC[C@@H]1C(C)(C)[C@H]2CC[C@]1(C)O2 [Compound 9, farnesiferol C]
- IC90, influenza A (H1N1) antiviral activity (influenza A virus (H1N1); MDCK cells, XTT, 3 days): 0.50 ± 0.07 µg/mL (≈ 1.31 µM)
- IC50, influenza A (H1N1) antiviral activity (influenza A virus (H1N1); [25]): 0.29 ± 0.02 µg/mL (≈ 0.758 µM)

Molecule: COC(=O)CC[C@H]1C(=C(C)C)CC[C@H](C)[C@]1(C)COc1ccc2ccc(=O)oc2c1 [Compound 7, methyl galbanate]
- IC50 (influenza A virus (H1N1); [26]): 0.26 ± 0.03 µg/mL (≈ 0.63 µM)
- IC90 (influenza A virus (H1N1); [27]): 0.44 ± 0.05 µg/mL (≈ 1.07 µM)
- IC50 at 3 days (in vitro [11]): 4.33 µg/mL (≈ 10.5 µM)
- IC50 at 3 days (in vitro [12]): > 20 µg/mL

Molecule: C=C1CC[C@@H]2C(C)(C)[C@H](O)CC[C@@]2(C)[C@H]1COc1ccc2ccc(=O)oc2c1 [Compound 10, farnesiferol A]
- IC90, influenza A (H1N1) antiviral activity (influenza A virus (H1N1); MDCK cells, XTT, 3 days): 0.64 ± 0.07 µg/mL (≈ 1.67 µM)
- IC50, influenza A (H1N1) antiviral activity (influenza A virus (H1N1); [25]): 0.51 ± 0.04 µg/mL (≈ 1.33 µM)
- IC50 cytotoxicity Hep G2 [1]: 14.89 µg/mL (≈ 38.9 µM)
- IC50 cytotoxicity Hep 3B [2]: 7.66 µg/mL (≈ 20 µM)
- IC50 cytotoxicity MDA-MB-231 [3]: 19.00 µg/mL (≈ 49.7 µM)
- IC50 cytotoxicity MCF 7 [4]: 15.57 µg/mL (≈ 40.7 µM)
- IC50 cytotoxicity A 549 [6]: 15.79 µg/mL (≈ 41.3 µM)
- IC50 cytotoxicity Ca9-22 [17]: 12.07 µg/mL (≈ 31.6 µM)

Molecule: CC(C)=CCC/C(C)=C/C(O)C/C(C)=C/COc1ccc2ccc(=O)oc2c1 (stereo not drawn) [Compound 4, 5′-hydroxyumbelliprenin]
- IC90, influenza A (H1N1) antiviral activity (influenza A virus (H1N1); MDCK cells, XTT, 3 days): 0.62 ± 0.08 µg/mL (≈ 1.62 µM)
- IC50, influenza A (H1N1) antiviral activity (influenza A virus (H1N1); [25]): 0.36 ± 0.03 µg/mL (≈ 0.941 µM)

Source: US8993618B2, “Composition for treating influenza A (H1N1) virus and a preparation method therefor” (priority 2010, dated 2015)
